Laboratory results published in patent publication US20260042764A1, “COMPOSITIONS AND METHODS FOR INHIBITION OF KRAS” (TheRas, Inc., priority 2022, published 2026).

Columns and labels:
[1] = test system: GP2d cells (KRAS G12D); assay: Cell-based pERK HTRF assay in GP2d cell (Biological Example 2)
Summary of the method: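 Cells grown in DMEM with 10% FBS were exposed to compound for 60 min at 0.25% DMSO, using a 9-point half-log series starting at 1 μM or 100 nM. Lysates were then mixed with d2 and Eu cryptate antibodies for 4–24 h at room temperature, and pERK was read by HTRF.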

[2] = target: T1, Avi-KRAS G12D (2-169) GTP/RAF1 RBD-3xFLAG (51-131) (Homo sapiens, UniProt P01116, G12D); assay: Raf1-KRAS G12D-GTP disruption HTRF assay (Biological Example 3); assay type: binding
T1 construct: Avi-KRAS G12D (2-169)
T1 sequence (P01116 2-169 isoform P01116-2 G12D): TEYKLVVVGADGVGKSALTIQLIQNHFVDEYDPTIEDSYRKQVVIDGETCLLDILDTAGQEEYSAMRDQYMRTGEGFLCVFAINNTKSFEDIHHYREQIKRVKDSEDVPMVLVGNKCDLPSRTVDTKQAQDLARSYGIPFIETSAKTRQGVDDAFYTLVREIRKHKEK
Summary of the method: (§1)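 Compounds were titrated 10-point, 3-fold from 30 μM against preformed KRAS-GTP:RAF1 RBD (51-131) complexes at 50 nM, using KRAS 2-169 as WT, G12C, G12D or G12V. After 1 h at room temperature in Tris pH 7.5 buffer with MgCl2 and 10% DMSO, time-resolved fluorescence was read. Results are percent activity versus DMSO.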

[3] = target: T2, Avi-KRAS G12C (2-169) GTP/RAF1 RBD-3xFLAG (51-131) (Homo sapiens, UniProt P01116, G12C); assay: Raf1-KRAS G12C-GTP disruption HTRF assay (Biological Example 3); assay type: binding
T2 construct: Avi-KRAS G12C (2-169)
T2 sequence (P01116 2-169 isoform P01116-2 G12C): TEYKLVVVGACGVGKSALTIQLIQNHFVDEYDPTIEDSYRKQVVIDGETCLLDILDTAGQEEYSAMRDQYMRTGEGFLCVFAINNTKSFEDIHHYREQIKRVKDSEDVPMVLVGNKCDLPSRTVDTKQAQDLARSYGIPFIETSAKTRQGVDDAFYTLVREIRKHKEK
Summary of the method: as §1

[4] = target: T3, Avi-KRAS G12V (2-169) GTP/RAF1 RBD-3xFLAG (51-131) (Homo sapiens, UniProt P01116, G12V); assay: Raf1-KRAS G12V-GTP disruption HTRF assay (Biological Example 3); assay type: binding
T3 construct: Avi-KRAS G12V (2-169)
T3 sequence (P01116 2-169 isoform P01116-2 G12V): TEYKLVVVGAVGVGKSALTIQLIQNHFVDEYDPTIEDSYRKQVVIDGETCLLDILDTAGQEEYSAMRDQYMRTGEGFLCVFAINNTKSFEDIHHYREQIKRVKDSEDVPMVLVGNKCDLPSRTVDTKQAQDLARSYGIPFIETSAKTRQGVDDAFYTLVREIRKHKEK
Summary of the method: as §1

[5] = target: T4, Avi-KRAS WT (2-169) GTP/RAF1 RBD-3xFLAG (51-131) (Homo sapiens, UniProt P01116); assay: Raf1-KRAS WT-GTP disruption HTRF assay (Biological Example 3); assay type: binding
T4 construct: Avi-KRAS WT (2-169)
T4 sequence (P01116 2-169 isoform P01116-2): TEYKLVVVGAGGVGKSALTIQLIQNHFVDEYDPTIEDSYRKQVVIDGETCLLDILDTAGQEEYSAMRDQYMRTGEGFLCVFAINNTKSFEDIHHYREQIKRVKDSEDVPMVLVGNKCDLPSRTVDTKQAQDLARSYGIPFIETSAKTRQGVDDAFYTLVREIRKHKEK
Summary of the method: as §1

[6] = test system: SW620 cells (KRAS G12V); assay: Cell-based pERK HTRF assay in SW620 cell (Biological Example 4)
Summary of the method: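 SW620 cells were treated for 4 h with compound in a 9-point half-log series from 1 μM top (0.25% DMSO), then lysed. Phospho-ERK was detected by HTRF with d2 and Eu cryptate antibodies after 4–24 h at room temperature, read at 615 nm emission.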

[7] = Homo sapiens, SW-620, SW620 (KRAS G12V) cells

SMILES	IC50 ([1]; GP2d, GP2d (KRAS G12D) cells) [nM]	IC50 ([2]; KRAS G12D, GTP-loaded) [nM]	IC50 ([3]; KRAS G12C, GTP-loaded) [nM]	IC50 ([4]; KRAS G12V, GTP-loaded) [nM]	IC50 ([5]; KRAS WT, GTP-loaded) [nM]	IC50 [6, 7] [nM]	IC50 ([1]; GP2d (KRAS G12D) cells) [nM]	IC50 ([6]; SW620 (KRAS G12V) cells) [nM]	IC50 ([1]; GP2d, GP2d cells (KRAS G12D)) [nM]	IC50 ([2]; KRAS G12D-GTP / RAF1 RBD HTRF) [nM]	IC50 ([3]; KRAS G12C-GTP / RAF1 RBD HTRF) [nM]	IC50 ([4]; KRAS G12V-GTP / RAF1 RBD HTRF) [nM]	IC50 ([5]; KRAS WT-GTP / RAF1 RBD HTRF) [nM]	IC50 ([6]; Homo sapiens, SW-620, SW620 cells (KRAS G12V)) [nM]
CCN(c1nc(OC[C@@]23CCCN2C[C@H](F)C3)nc2c(F)c(-c3ccc(F)c4sc(N)c(C#N)c34)c(C(F)(F)F)cc12)[C@@H]1CCN(c2ccccn2)C1 [Compound 945]	< 100	1000 to 10000	> 10000	> 10000	> 10000	< 100								
CCN(c1nc(OC[C@@]23CCCN2C[C@H](F)C3)nc2c(F)c(-c3ccc(F)c4sc(N)c(C#N)c34)c(C(F)(F)F)cc12)[C@H]1CCN(c2ccccn2)C1 [Compound 948]	< 100	1000 to 10000	1000 to 10000	> 10000	> 10000	< 100								
CCN(c1nc(OCC23CCCN2CC(F)C3)nc2c(F)c(-c3ccc(F)c4sc(N)c(C#N)c34)c(C(F)(F)F)cc12)C1CCN(C(=O)c2ncns2)C1 (stereo not drawn) [Compound 949]	< 100	100 to 1000	100 to 1000	100 to 1000	100 to 1000	< 100								
CN(c1nc(OCC23CCCN2CC(F)C3)nc2c(F)c(-c3ccc(F)c4sc(N)c(C#N)c34)c(C(F)(F)F)cc12)C1CCc2ccncc21 (stereo not drawn) [Compound 962]		1000 to 10000	> 10000	> 10000	1000 to 10000		< 100	< 100						
C[C@@H](c1cccnc1)N(C)c1nc(OC[C@@]23CCCN2C[C@H](F)C3)nc2c(F)c(-c3ccc(F)c4sc(N)c(C#N)c34)c(C(F)(F)F)cc12 [Compound 969]	< 100	1000 to 10000	1000 to 10000	1000 to 10000	1000 to 10000	< 100								
CCN(c1nc(OC[C@@]23CCCN2C[C@H](F)C3)nc2c(F)c(-c3ccc(F)c4sc(N)c(C#N)c34)c(C(F)(F)F)cc12)[C@H]1CCN(c2nccs2)C1 [Compound 973]									< 100	100 to 1000	100 to 1000	100 to 1000	1000 to 10000	< 100

Continued, values first:

IC50 ([1]; GP2d, GP2d (KRAS G12D) cells) [nM]	IC50 ([2]; KRAS G12D, GTP-loaded) [nM]	IC50 ([3]; KRAS G12C, GTP-loaded) [nM]	IC50 ([4]; KRAS G12V, GTP-loaded) [nM]	IC50 ([5]; KRAS WT, GTP-loaded) [nM]	IC50 [6, 7] [nM]	IC50 ([1]; GP2d (KRAS G12D) cells) [nM]	IC50 ([6]; SW620 (KRAS G12V) cells) [nM]	IC50 ([1]; GP2d, GP2d cells (KRAS G12D)) [nM]	IC50 ([2]; KRAS G12D-GTP / RAF1 RBD HTRF) [nM]	IC50 ([3]; KRAS G12C-GTP / RAF1 RBD HTRF) [nM]	IC50 ([4]; KRAS G12V-GTP / RAF1 RBD HTRF) [nM]	IC50 ([5]; KRAS WT-GTP / RAF1 RBD HTRF) [nM]	IC50 ([6]; Homo sapiens, SW-620, SW620 cells (KRAS G12V)) [nM]	SMILES
< 100	> 10000	> 10000	> 10000	> 10000	< 100									N#Cc1c(N)sc2c(F)ccc(-c3c(C(F)(F)F)cc4c(N5CCC(c6cccnc6)C5)nc(OC[C@@]56CCCN5C[C@H](F)C6)nc4c3F)c12 (stereo partly drawn) [Compound 943]
100 to 1000	> 10000	> 10000	> 10000	> 10000	100 to 1000									N#Cc1c(N)sc2c(F)ccc(-c3c(C(F)(F)F)cc4c(N5CCCC(c6cccnc6)C5)nc(OC[C@@]56CCCN5C[C@H](F)C6)nc4c3F)c12 (stereo partly drawn) [Compound 944]
< 100	1000 to 10000	1000 to 10000	1000 to 10000	1000 to 10000	100 to 1000									N#Cc1c(N)sc2c(F)ccc(-c3c(C(F)(F)F)cc4c(N5Cc6ccncc6C5)nc(OC[C@@]56CCCN5C[C@H](F)C6)nc4c3F)c12 [Compound 946]
	1000 to 10000	1000 to 10000	> 10000	> 10000		< 100	100 to 1000							CCN(c1nc(OC[C@@]23CCCN2C[C@H](F)C3)nc2c(F)c(-c3ccc(F)c4sc(N)c(C#N)c34)c(C(F)(F)F)cc12)C1CCN(C(=O)OC)C1 (stereo partly drawn) [Compound 947]
< 100	1000 to 10000	1000 to 10000	1000 to 10000	1000 to 10000	< 100									CCN(c1nc(OC[C@@]23CCCN2C[C@H](F)C3)nc2c(F)c(-c3ccc(F)c4sc(N)c(C#N)c34)c(C(F)(F)F)cc12)[C@@H]1CC[C@H](C(=O)N(C)C)C1 [Compound 959]
	100 to 1000	100 to 1000	100 to 1000	1000 to 10000		< 100	< 100							CCN(c1nc(OCC23CCCN2CC(F)C3)nc2c(F)c(-c3ccc(F)c4sc(N)c(C#N)c34)c(C(F)(F)F)cc12)C1CCN(C(=O)c2cnc(C#N)s2)C1 (stereo not drawn) [Compound 960]
	1000 to 10000	> 10000	1000 to 10000	> 10000		< 100	< 100							CN(c1nc(OCC23CCCN2CC(F)C3)nc2c(F)c(-c3ccc(F)c4sc(N)c(C#N)c34)c(C(F)(F)F)cc12)C1CCc2ccncc21 (stereo not drawn) [Compound 961]
< 100	1000 to 10000	1000 to 10000	1000 to 10000	1000 to 10000	< 100									CCN(c1nc(OC[C@@]23CCCN2C[C@H](F)C3)nc2c(F)c(-c3ccc(F)c4sc(N)c(C#N)c34)c(C(F)(F)F)cc12)[C@@H]1CCN(c2cccn(C)c2=O)C1 [Compound 964]
